Square brackets hold non-standard residues; d marks the D form. Peptide text beside a SMILES is read from it. * marks the point of attachment. His(Trt) = N[C@@H](Cc1cn(C(c2ccccc2)(c2ccccc2)c2ccccc2)cn1)C(=O)O; dHis(Trt) = N[C@H](Cc1cn(C(c2ccccc2)(c2ccccc2)c2ccccc2)cn1)C(=O)O; dPhe(4-Br) = N[C@H](Cc1ccc(Br)cc1)C(=O)O; dPhe(4-Cl) = N[C@H](Cc1ccc(Cl)cc1)C(=O)O; dPhe(4-F) = N[C@H](Cc1ccc(F)cc1)C(=O)O; Palmitoyl = CCCCCCCCCCCCCCCC(=O)*; Myristoyl = CCCCCCCCCCCCCC(=O)*; Lauroyl = CCCCCCCCCCCC(=O)*; Decanoyl = CCCCCCCCCC(=O)*; Octanoyl = CCCCCCCC(=O)*
The compounds below were run against T1, GPR39 (Homo sapiens, UniProt O43194) (assay: luciferase assay system (SRE luciferase reporter gene, CV-1 cells expressing GPR39)).
T1 sequence (O43194 1-453): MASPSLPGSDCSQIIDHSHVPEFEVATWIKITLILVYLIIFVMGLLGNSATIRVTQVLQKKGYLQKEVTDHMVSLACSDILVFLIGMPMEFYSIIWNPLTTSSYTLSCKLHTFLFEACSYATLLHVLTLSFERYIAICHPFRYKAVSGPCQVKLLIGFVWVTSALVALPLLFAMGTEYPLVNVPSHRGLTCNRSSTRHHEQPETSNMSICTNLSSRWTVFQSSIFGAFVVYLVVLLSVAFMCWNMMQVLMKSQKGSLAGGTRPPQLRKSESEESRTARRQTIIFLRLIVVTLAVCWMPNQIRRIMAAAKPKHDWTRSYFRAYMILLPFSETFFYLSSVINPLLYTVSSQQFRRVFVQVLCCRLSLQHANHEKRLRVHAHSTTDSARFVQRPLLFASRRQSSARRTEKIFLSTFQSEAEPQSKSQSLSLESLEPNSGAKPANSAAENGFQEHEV
Assay type: cell-based
Design: expressed in transfected cells; host or cells: CV-1 fibroblast cell line (Korea Cell Line Bank), adenoviral transduction at 50 MOI

Row | Structure (SMILES) | ECmax (−fold induction over basal) [fold induction over basal]
1 | CCCCCCCC(=O)NCCCC[C@H](NC(=O)[C@@H](N)CC1=CN(CCc2ccccc2)CN1CCc1ccccc1)C(=O)N[C@@H](Cc1ccccc1)C(=O)N[C@@H](Cc1ccc(O)cc1)C(=O)O [HKFY-6, N2-((S)-2-amino-3-(1,3-diphenethyl-2,3-dihydro-1H-imidazol-4-yl)propanoyl)-N6-octanoyl-L-lysyl-L-phenylalanyl-L-tyrosine] | 15 ± 2.12
2 | CCCCCCCC(=O)NCCCC[C@H](NC(=O)[C@@H](N)CC1=CNCN1CCC1CCCCC1)C(=O)N[C@@H](Cc1ccccc1)C(=O)N[C@@H](Cc1ccc(O)cc1)C(=O)O [HKFY-7, N2-((S)-2-amino-3-(3-(2-cyclohexylethyl)-2,3-dihydro-1H-imidazol-4-yl)propanoyl)-N6-octanoyl-L-lysyl-L-phenylalanyl-L-tyrosine] | 16 ± 2.2
3 | CCCCCCCC(=O)NCCCC[C@H](NC(=O)[C@@H](N)CC1=CN(CCC2CCCCC2)CN1CCC1CCCCC1)C(=O)N[C@@H](Cc1ccccc1)C(=O)N[C@@H](Cc1ccc(O)cc1)C(=O)O [HKFY-8, N2-((S)-2-amino-3-(1,3-bis(2-cyclohexylethyl)-2,3-dihydro-1H-imidazol-4-yl)propanoyl)-N6-octanoyl-L-lysyl-L-phenylalanyl-L-tyrosine] | 17.3±1.22
4 | CCCCCCCC(=O)NCCCC[C@H](NC(=O)[C@@H](N)Cc1cn(CCc2ccccc2)cn1)C(=O)N[C@@H](Cc1ccccc1)C(=O)N[C@@H](Cc1ccc(O)cc1)C(=O)O [HKFY-9, N6-octanoyl-N2-(Nt-phenethyl-L-histidyl)-L-lysyl-L-phenylalanyl-L-tyrosine] | 21 ± 2.52
5 | CCCCCCCC(=O)NCCCC[C@H](NC(=O)[C@@H](N)Cc1cn(CCC2CCCCC2)cn1)C(=O)N[C@@H](Cc1ccccc1)C(=O)N[C@@H](Cc1ccc(O)cc1)C(=O)O [HKFY-11, N2-(Nt-(2-cyclohexylethyl)-L-histidyl)-N6-octanoyl-L-lysyl-L-phenylalanyl-L-tyrosine] | 22 ± 2.2
6 | CCCCCCCC(=O)NCCCC[C@H](NC(=O)[C@@H](N)Cc1cn(CCC(c2ccccc2)c2ccccc2)cn1)C(=O)N[C@@H](Cc1ccccc1)C(=O)N[C@@H](Cc1ccc(O)cc1)C(=O)O [HKFY-17] | 20 ± 0.57
7 | CCCCCCCC(=O)NCCCC[C@H](NC(=O)[C@@H](N)Cc1cn(CC2c3ccccc3-c3ccccc32)cn1)C(=O)N[C@@H](Cc1ccccc1)C(=O)N[C@@H](Cc1ccc(O)cc1)C(=O)O [HKFY-18] | 10 ± 1.48
8 | CCCCCCCC(=O)NCCCC[C@H](NC(=O)[C@@H](N)Cc1cn(C(c2ccccc2)c2ccc(OC)cc2)cn1)C(=O)N[C@@H](Cc1ccccc1)C(=O)N[C@@H](Cc1ccc(O)cc1)C(=O)O (stereo partly drawn) [HKFY-20, N2-(Nt-((4-methoxyphenyl)(phenyl)methyl)-L-histidyl)-N6-octanoyl-L-lysyl-L-phenylalanyl-L-tyrosine] | 20.26 ± 2.7
9 | CCCCCCCC(=O)NCCCC[C@H](NC(=O)[C@@H](N)Cc1cn([C@H](c2ccccc2)c2ccc(Cl)cc2)cn1)C(=O)N[C@@H](Cc1ccccc1)C(=O)N[C@@H](Cc1ccc(O)cc1)C(=O)O [HKFY-21, N2-(Nt-((R)-(4-chlorophenyl)(phenyl)methyl)-L-histidyl)-N6-octanoyl-L-lysyl-L-phenylalanyl-L-tyrosine] | 18.3 ± 2.5
10 | CCCCCCCC(=O)NCCCC[C@H](NC(=O)[C@@H](N)Cc1cn([C@H](c2ccccc2)c2ccc(C)cc2)cn1)C(=O)N[C@@H](Cc1ccccc1)C(=O)N[C@@H](Cc1ccc(O)cc1)C(=O)O [HKFY-22, N6-octanoyl-N2-(Nt-((R)-phenyl(p-tolyl)methyl)-L-histidyl)-L-lysyl-L-phenylalanyl-L-tyrosine] | 21.3 ± 1.8
11 | CCCCCCCC(=O)NCCCC[C@H](NC(=O)[C@@H](N)Cc1cn(C23CC4CC(CC(C4)C2)C3)cn1)C(=O)N[C@@H](Cc1ccccc1)C(=O)N[C@@H](Cc1ccc(O)cc1)C(=O)O [HKFY-23, N2-(Nt-(adamantan-1-yl)-L-histidyl)-N6-octanoyl-L-lysyl-L-phenylalanyl-L-tyrosine] | 15 ± 1.37
12 | CCCCCCCCCCCC(=O)NCCCC[C@H](NC(=O)[C@@H](N)Cc1cn(C(c2ccccc2)(c2ccccc2)c2ccccc2)cn1)C(=O)N[C@@H](Cc1ccccc1)C(=O)N[C@@H](Cc1ccc(O)cc1)C(=O)O [HKFY-25, N6-dodecanoyl-N2-(Nt-trityl-L-histidyl)-L-lysyl-L-phenylalanyl-L-tyrosine] (H-[His(Trt)]K(Lauroyl)FY-OH) | 7.72 ± 0.57
13 | CCCCCCCCCCCCCC(=O)NCCCC[C@H](NC(=O)[C@@H](N)Cc1cn(C(c2ccccc2)(c2ccccc2)c2ccccc2)cn1)C(=O)N[C@@H](Cc1ccccc1)C(=O)N[C@@H](Cc1ccc(O)cc1)C(=O)O [HKFY-26, N6-tetradecanoyl-N2-(Nt-trityl-L-histidyl)-L-lysyl-L-phenylalanyl-L-tyrosine] (H-[His(Trt)]K(Myristoyl)FY-OH) | 19.82 ± 0.57
14 | CCCCCCCCCCCCCCCC(=O)NCCCC[C@H](NC(=O)[C@@H](N)Cc1cn(C(c2ccccc2)(c2ccccc2)c2ccccc2)cn1)C(=O)N[C@@H](Cc1ccccc1)C(=O)N[C@@H](Cc1ccc(O)cc1)C(=O)O [HKFY-27, N6-palmitoyl-N2-(Nt-trityl-L-histidyl)-L-lysyl-L-phenylalanyl-L-tyrosine] (H-[His(Trt)]K(Palmitoyl)FY-OH) | 20.4 ± 0.57

Other lines, results leading:

Row | ECmax (−fold induction over basal) [fold induction over basal] | Structure (SMILES)
15 | 25.7 ± 2.4 | C=C(CCCCCCC)NCCCC[C@H](NC(=O)[C@@H](N)Cc1cn(C(c2ccccc2)(c2ccccc2)c2ccccc2)cn1)C(=O)N[C@H](Cc1ccc(Cl)cc1)C(=O)N[C@@H](Cc1ccc(O)cc1)C(=O)O [HKFY-13, ((R)-2-((S)-2-((S)-2-amino-3-(1-trityl-1H-imidazol-4-yl)propanamido)-6-(non-1-en-2-ylamino)hexanamido)-3-(4-chlorophenyl)propanoyl)-L-tyrosine]
16 | 20.9 ± 1.4 | CCCCCCCC(=O)NCCCC[C@H](NC(=O)[C@H](N)Cc1cn(C(c2ccccc2)(c2ccccc2)c2ccccc2)cn1)C(=O)N[C@H](Cc1ccc(Cl)cc1)C(=O)N[C@H](Cc1ccc(O)cc1)C(=O)O [HKFY-14, ((R)-2-((S)-2-((R)-2-amino-3-(1-trityl-1H-imidazol-4-yl)propanamido)-6-octanamidohexanamido)-3-(4-chlorophenyl)propanoyl)-D-tyrosine] (H-[dHis(Trt)]K(Octanoyl)[dPhe(4-Cl)][dY]-OH)
17 | 24.7 ± 2.6 | CCCCCCCC(=O)NCCCC[C@H](NC(=O)[C@@H](N)Cc1cn(C(c2ccccc2)(c2ccccc2)c2ccccc2)cn1)C(=O)N[C@H](Cc1ccc(Cl)cc1)C(=O)N[C@H](Cc1ccc(O)cc1)C(=O)O [HKFY-15, ((R)-2-((S)-2-((S)-2-amino-3-(1-trityl-1H-imidazol-4-yl)propanamido)-6-octanamidohexanamido)-3-(4-chlorophenyl)propanoyl)-D-tyrosine] (H-[His(Trt)]K(Octanoyl)[dPhe(4-Cl)][dY]-OH)
18 | 27.9 ± 3.4 | CCCCCCCC(=O)NCCCC[C@@H](NC(=O)[C@@H](N)Cc1cn(C(c2ccccc2)(c2ccccc2)c2ccccc2)cn1)C(=O)N[C@H](Cc1ccc(Cl)cc1)C(=O)N[C@@H](Cc1ccc(O)cc1)C(=O)O [HKFY-16, ((R)-2-((R)-2-((S)-2-amino-3-(1-trityl-1H-imidazol-4-yl)propanamido)-6-octanamidohexanamido)-3-(4-chlorophenyl)propanoyl)-L-tyrosine] (H-[His(Trt)][dK](Octanoyl)[dPhe(4-Cl)]Y-OH)
19 | 7.03 ± 0.57 | CCCCCCCCCC(=O)NCCCC[C@H](NC(=O)[C@@H](N)Cc1cn(C(c2ccccc2)(c2ccccc2)c2ccccc2)cn1)C(=O)N[C@@H](Cc1ccccc1)C(=O)N[C@@H](Cc1ccc(O)cc1)C(=O)O [HKFY-24, N6-decanoyl-N2-(Nt-trityl-L-histidyl)-L-lysyl-L-phenylalanyl-L-tyrosine] (H-[His(Trt)]K(Decanoyl)FY-OH)
20 | 22.95 ± 2.58 | CCCCCCCC(=O)NCCCC[C@H](NC(=O)[C@@H](N)Cc1cn(C(c2ccccc2)(c2ccccc2)c2ccccc2)cn1)C(=O)N[C@H](Cc1ccc(F)cc1)C(=O)N[C@@H](Cc1ccc(O)cc1)C(=O)O [HKFY-28, ((R)-2-((S)-2-((S)-2-amino-3-(1-trityl-1H-imidazol-4-yl)propanamido)-6-octanamidohexanamido)-3-(4-fluorophenyl)propanoyl)-L-tyrosine] (H-[His(Trt)]K(Octanoyl)[dPhe(4-F)]Y-OH)
21 | 26.8 ± 1.87 | CCCCCCCC(=O)NCCCC[C@H](NC(=O)[C@@H](N)Cc1cn(C(c2ccccc2)(c2ccccc2)c2ccccc2)cn1)C(=O)N[C@H](Cc1ccc(Br)cc1)C(=O)N[C@@H](Cc1ccc(O)cc1)C(=O)O [HKFY-29, ((R)-2-((S)-2-((S)-2-amino-3-(1-trityl-1H-imidazol-4-yl)propanamido)-6-octanamidohexanamido)-3-(4-bromophenyl)propanoyl)-L-tyrosine] (H-[His(Trt)]K(Octanoyl)[dPhe(4-Br)]Y-OH)
